Paper PMC2993163 (Structure (London, England : 1993), 2009)

Biological target: T1, BdRppH (Bdellovibrio bacteriovorus, UniProt Q6MPX4)
T1 sequence (Q6MPX4 1-153): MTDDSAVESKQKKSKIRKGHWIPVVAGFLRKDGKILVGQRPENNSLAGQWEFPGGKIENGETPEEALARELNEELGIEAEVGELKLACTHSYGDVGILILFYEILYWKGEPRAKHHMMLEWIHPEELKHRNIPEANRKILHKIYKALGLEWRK
Assay: X-ray crystal structure
Assay type: binding
Settings: deposited complex; not described in text

**Q.** For `Nc1nc2c(ncn2[C@H]2C[C@H](O)[C@@H](COP(=O)(O)OP(=O)(O)OP(=O)(O)O)O2)c(=O)[nH]1` [dGTP], which X-ray crystal structure is on record?
**A.** The X-ray crystal structure was “RNA pyrophosphohydrolase in complex with dGTP”.
